According to patent publication US20260306491A1, “EGFR INHIBITOR FOR TREATING CANCERS COMPRISING ATYPICAL EGFR MUTATIONS” (ORIC Pharmaceuticals, Inc., priority 2023, published 2026):
Counter-ions that a name gives are not always drawn.

What was measured:
[1] = Solubility screening of malonate salt of Compound I in various solvents at RT; type: physicochemical
Procedure: The solubility of the malonate salt of Compound I as prepared according to Example 2 in various solvents at RT was measured. The malonate salt of Compound I (approximately 2 mg) was added to a 3-mL glass vial. The solvent was then added stepwise (50/50/200/200/500/1000 μL) into the vial until the solids were dissolved visually or a total volume of 2 mL was reached.

[2] = Moisture uptake by dynamic vapor sorption (DVS); type: physicochemical; settings: 25° C./80% relative humidity
Procedure: DVS was measured via a SMS (Surface Measurement Systems) DVS Intrinsic.
The relative humidity at 25° C. was calibrated against deliquescence point of LiCl, Mg(NO3)2 and KCl.
Freebase Compound I was stirred with an equimolar amount of malonic acid in acetone at RT for 14.5 hrs. The slurry was subjected to vacuum drying at 50° C. for about 6 hrs. The malonate salt of Compound I was analyzed by XRPD, DSC, TGA, ^1H NMR, and DVS. […] As shown in the TGA graph, a weight loss of about 0.7% up to 130° C. was observed.
Freebase Compound I was stirred with an equimolar amount of glycolic acid in acetone at RT for 2 days, followed by vacuum drying at 50° C. for 2 hrs. The glycolate salt of Compound I was analyzed by XRPD, DSC, TGA, ^1H NMR, and DVS. […] As shown in the TGA graph, a weight loss of about 1.3% up to 120° C. was observed.

[3] = Biodistribution in plasma and brain after single oral dose in female CB17 SCID mice; type: in vivo; settings: mouse, oral 50 mg/kg, 8 h
Procedure: Female non-tumor bearing Fox Chase CB17 SCID mice were orally administered a single dose as specified in Table B1.
Brain tissues were excised and plasma was collected from all the animals receiving Compound I, or tucatinib at 1 hour, 4 hours, and 8 hours post-administration. Tucatinib was used as a reference agent. Tucatinib is a clinically approved therapy for HER2 positive breast cancer patients with brain metastases. The harvested brains were rinsed in ice-cold phosphate-buffered saline and weighed. All plasma and brain samples were stored at approximately −80° C. until thawed for LC-MS/MS analysis.
Prior to analysis, brain tissues were homogenized 1:5 with phosphate buffer. Average free brain-to-free plasma ratio (Kp,uu) was calculated from individual mice by using total concentration values determined in the brain and plasma at individual time points, or by calculating the area under the curve (AUC) and converting the values to free concentration (or AUC) with in vitro binding parameters determined in the brain (fu,b) and plasma (fu,p) as follows:
Kp,uu=Brain Concentration (or AUC)*fu,b/Plasma Concentration (or AUC)*fu,p.
Free fraction in the brain (fu,b) and in plasma (fu,p) was determined with equilibrium dialysis as follows: The brain tissue homogenate or plasma from the mice were spiked to yield a final concentration of 1 μM Compound I, or 5 μM tucatinib. Compound I and tucatinib were incubated in equilibrium dialysis plate on a shaking incubator at 37° C. with 5% CO2 at 450 rpm for 8 hours and 24 hours, respectively. Following the incubation, aliquots of the matrix and the buffer samples were sampled and the concentration of Compound I, or tucatinib were determined.
where fu,b,d is fraction unbound determined with 20% brain homogenate.

Molecule `C=CC(=O)Nc1cc(Nc2cc(N3OCC[C@@H]3c3cc(F)cc(F)c3)ncn2)c(OC)cc1N1CCC(N2CCN(C3CC3)CC2)CC1` [malonate salt of Compound I] has a solubility ([1]; Water, RT) of under 1200 µg/mL, a solubility ([1]; organic solvent or mixture, 1,4-Dioxane, RT) of 2100 to 7000 µg/mL and a solubility ([1]; organic solvent or mixture, 2-MeTHF, RT) of 1100 to 2200 µg/mL. It also gave a solubility ([1]; organic solvent or mixture, ACN, RT) of 6000 to 18000 µg/mL, a solubility ([1]; organic solvent or mixture, Acetone, RT) of 1100 to 2200 µg/mL and a solubility ([1]; organic solvent or mixture, Anisole, RT) of under 900 µg/mL. For the same molecule, the solubility ([1]; organic solvent or mixture, CHCl3, RT) was over 40000 µg/mL, the solubility ([1]; organic solvent or mixture, CPME, RT) was under 1100 µg/mL and the solubility ([1]; organic solvent or mixture, DCM, RT) was 20000 to 40000 µg/mL. The solubility ([1]; organic solvent or mixture, DMSO, RT) was over 40000 µg/mL, the solubility ([1]; organic solvent or mixture, EtOAc, RT) was under 1000 µg/mL and the solubility ([1]; organic solvent or mixture, EtOH, RT) was 1900 to 6300 µg/mL. The solubility ([1]; organic solvent or mixture, IPA, RT) was under 1200 µg/mL, the solubility ([1]; organic solvent or mixture, IPAc, RT) was under 900 µg/mL and the solubility ([1]; organic solvent or mixture, MIBK, RT) was under 1200 µg/mL. For the same molecule, the solubility ([1]; organic solvent or mixture, MTBE, RT) was under 1000 µg/mL, the solubility ([1]; organic solvent or mixture, MeOH, RT) was over 46000 µg/mL and the solubility ([1]; organic solvent or mixture, THF, RT) was 2100 to 7000 µg/mL. For the same molecule, the solubility ([1]; organic solvent or mixture, Toluene, RT) was under 1000 µg/mL, the solubility ([1]; organic solvent or mixture, n-Heptane, RT) was under 1100 µg/mL and the Moisture uptake [2] was 0.19%.
For `Cc1cc(Nc2ncnc3ccc(NC4=NC(C)(C)CO4)cc23)ccc1Oc1ccn2ncnc2c1` [tucatinib, reference compound], the Unbound brain concentration [3] was “below the limit of quantitation (BLOQ)”.
